Data from US6638938B1, “Method for preventing tissue injury from hypoxia” (Cell Therapeutics, Inc., priority 1993, dated 2003).

How the values were obtained:
human neutrophils = assay: neutrophil superoxide anion production (cytochrome c reduction); type: cell-based
From the text: Human recombinant interleukin-1α (IL-1) was obtained from Hoffmann-LaRoche, Inc. (Nutley, N.J.), frozen inaliquots and thawed daily for use. Ketamine hydrochloride was obtained from Parke-Davis (Morris Plains, N.J.), xylazine from Haver (New York, N.J.), ^125I labeled bovine serum albumin (BSA) from ICN Radiochemicals (Irvine, Calif.), and heparin sodium from Elkins-Sinn, Inc. (Cherry Hill, N.J.). All other reagents were purchased from Sigma Chemical Co. (St. Louis, Mo.). Neutrophils were purified from human blood by well described methods. Venous blood was anticoagulated with heparin and the cellular elements were separated from platelet-rich plasma by centrifugation. Cell pellets were resuspended in platelet-poor plasma and diluted 1:4 with 6% dextran (Pharmacia Fine Chemicals, Piscataway, N.J.) in saline. Red cells were separated from leukocytes by sedimentation. Leukocyte-rich supernatants were then aspirated, underlain with Ficoll-Hypaque (Pharmacia Fine Chemicals), and centrifuged at 275×g to separate neutrophils and monocytes. Sedimented neutrophils were resuspended in Hank's balanced salt solution (HBSS). These preparations contained 94 to 96% neutrophils and 4 to 6% monocytes. All values were compared by analysis of variance and corrected by post hoc Student t tests for differences between groups. A p value of <0.05 was considered significant.
Release of superoxide anion by neutrophils was determined spectrophotometrically by measuring superoxide dismutase (SOD) inhibitable reduction of horse heart ferricytochrome C (Sigma Chemical Co., St. Louis, Mo.). Briefly, neutrophils (2×10^6) were placed in tubes containing HBSS (sufficient quantity to 2.0 ml), pooled human serum (1%), and SOD (2.98 mg) with and without Lisofylline. These mixtures were divided in half, and one part was incubated at 37° C. and one part at 4° C. After incubation, reaction mixtures were kept at 4° C. and centrifuged at 800×g for 15 min. Absorbance for paired supernatants was measured at 550 nm using a spectrophotometer (Model 35; Beckman Instruments, Inc., Fullerton, Calif.), averaged, and expressed at nanomoles of SOD-inhibitable cytochrome C reduced/20 min. In some experiments, neutrophils were incubated with PMA.
Neutrophil chemotactic activity was determined by Boyden chamber assay and quantitated as the number of migrating PMN/5HPF using zymosan-activated serum (ZAS) as the chemoattractant (Repine et al., J. Reticuloendo. Soc. 24:217, 1978). Neutrophil adherence was assessed by quantitating the percentage of neutrophils adhering to nylon fibers following addition of phorbol myristate acetate (PMA 10-^6M, Sigma) (Rasp et al., J. Reticuloendo. Soc. 25:101, 1979). Neutrophil superoxide production was determined by quantitating superoxide dismutase inhibitable reduction of cytochrome c in response to PMA (10^−6 M) (Berger et al., J. Infectious Dis. 149:413, 1984).

TNFα = assay: immunohistochemical staining of lung samples for TNFα; type: in vivo; conditions: hemorrhaged/resuscitated mice or normal mice treated
From the text: In sections from mice subjected to hemorrhage and resuscitation 3 days previously, staining for TNFα was present, particularly in the perivascular areas.

PA and DAG generation = conditions: cited from earlier work
[1] = serum level of Lisofylline in hemorrhaged mice; type: in vivo; conditions: male, mouse, intravenous, hemorrhaged Balb/C mice, 5 minutes after 100 mg/kg Lisofylline given with resuscitation blood, read-out: serum levels of Lisofylline
Description: This example illustrates a study of Lisofylline in a murine hemorrhage and resuscitation model. Male Balb/C mice, 8-12 weeks of age, were obtained from Harlan-Sprague Dawley (Indianapolis, Ind.). The animals were kept on a 12 hour light/dark cycle with free access to food and water. With this model, 30% of the calculated blood volume (approximately 0.55 ml for a 20 gram mouse) was withdrawn from a methoxyflurane anesthetized mouse by cardiac puncture over a 60-second period. The blood was collected into a heparinized syringe (5 units heparin), kept at 37° C. for one hour, then reinfused into the mouse through a retroorbital plexus injection. Using this method, one is able to resuscitate all hemorrhaged mice without complication. The total period of methoxyflurane anesthesia is less than 2 minutes in all cases. The mortality rate with this hemorrhage protocol is approximately 12%, with all deaths occurring over the 24 hours post hemorrhage, and most deaths occurring within the one hour post hemorrhage.
Mice were treated with 100 mg/kg Lisofylline in 0.2 ml PBS and given initially i.v., by retroorbital injection, then i.p. every 8 hours for a total of 9 doses. In hemorrhaged mice, the Lisofylline in PBS was added to the shed blood, and then given retroorbitally with the blood during the resuscitation phase. […]

isolated rat lungs = assay: human neutrophil perfused isolated rat lungs given IL-8 intratracheally
Description: After Sprague-Dawley adult male rats (350±50 g) were anesthetized with pentobarbital (60 mg/kg i.p.), a tracheotomy cannula was placed and secured with 2-O ligature. Lungs were ventilated with a tidal volume of 3 cc at a rate of 60/min. with a gas mixture containing 5% CO2 21% O2 and 74% N2. Following midline thoracotomy, a 4-O ligature was loosely placed around the root of the pulmonary outflow tract. Heparin (200 units) was injected into the right ventricle and allowed to recirculate. A rigid cannula was placed into the right ventricle, threaded into the pulmonary outflow tract, and secured with the ligature. The left ventricle was incised and a drainage cannula was inserted and secured with a 2-O ligature. Lungs and heart were excised, placed in an isolated lung chamber, and ventilated with 2.5 cm of positive end-expiratory pressure. Lungs were perfused free of blood using Earle's Balanced Salt Solution (Sigma) containing calcium chloride (0.265 g/L), magnesium sulfate (0.09767 g/L), potassium chloride (0.4 g/L), sodium chloride (6.8 g/L), sodium phosphate monobasic (0. 122 g/L) and D-glucose (1 g/L) to which was added sodium bicarbonate (2.2 g/L.) and Ficoll-70 (Sigma)(40 g/L), and the final pH adjusted to 7.40. […] Pulmonary artery pressures were continuously monitored with a transducer and weight increases were monitored with a force transducer. […]

SMILES: C[C@@H](O)CCCCn1c(=O)c2c(ncn2C)n(C)c1=O [Lisofylline, 1-R-(5-hydroxyhexyl)-3,7-dimethylxanthine]
- Neutrophil Superoxide Production in vitro (human neutrophils; Neutrophils + PMA + Lisofylline 0.7 μM): 9.2 ± 7.8 (4) μM cyto c reduced/30 min
- Neutrophil Superoxide Production in vitro (human neutrophils; Neutrophils + PMA + Lisofylline 7 μM): 82.3 ± 5.2 (4) μM cyto c reduced/30 min
- Neutrophil Superoxide Production in vitro (human neutrophils; Neutrophils + PMA + Lisofylline 70 μM): 80.6 ± 5.2 (4) μM cyto c reduced/30 min
- Neutrophil Superoxide Production in vitro (human neutrophils; Neutrophils + PMA + Lisofylline 700 μM): 92.0 ± 1.1 (4) μM cyto c reduced/30 min
- neutrophil superoxide anion generation (human neutrophils; PMA 10^-6 M, in vitro, whether reduced): not
- immunohistochemical staining of lung for TNFα (TNFα): no signal
- concentrations at which Lisofylline effectively inhibits PA synthesis (PA and DAG generation): 10 to 30 µM
- concentration at 5 min [1]: 44000 ± 6000 ng/mL
- Lung Weight Gain (isolated rat lungs; Neutrophils + IL-8 + Lisofylline 1 μM): 0.0 ± 0.0 (3)δ g
- Lung Weight Gain (isolated rat lungs; Neutrophils + IL-8 + Lisofylline 50 μM): 0.0 ± 0.0 (4)δ g
